Tested on: not given
Assay: not given
Conditions: not given

| melting point | SMILES |
| --- | --- |
| 157 °C | CCCCCCCCc1ccc(OCC(=O)Cn2cc(Cl)c3cc(C(=O)O)ccc32)cc1 [Example 19, 3-Chloro-1-[3-(4-octylphenoxy)-2-oxopropyl]indole-5-carboxylic acid] |
| 96 °C | CCCCCCCCc1ccc(OCC(=O)Cn2ccc3cc(C=O)ccc32)cc1 [Example 16, 1-[3-(4-Octylphenoxy)-2-oxopropyl]indole-5-carbaldehyde] |
| 85 °C | CCCCCCCCc1ccc(OCC(=O)Cn2ccc3cc(OC)ccc32)cc1 [Example 14, 1-(5-Methoxyindol-1-yl)-3-(4-octylphenoxy)propan-2-one] |
| 58 to 59 °C | CCCCCCCCc1ccc(OCC(=O)Cn2cccc2)cc1 |
| 66 to 67 °C | CCCCCCCCc1ccc(OCC(=O)Cn2ncc3ccccc32)cc1 |
| 77 °C | CCCCCCCCc1ccc(OCC(=O)Cn2ccc3cc(Cl)ccc32)cc1 [Example 13, 1-(5-Chloroindol-1-yl)-3-(4-octylphenoxy)propan-2-one] |
| 145 to 146 °C | CCCCCCCCc1ccc(OCC(=O)Cn2cc(C(C)(C)C)c3ccc(C(=O)O)cc32)cc1 [Example 23, 3-tert-Butyl-1-[3-(4-octylphenoxy)-2-oxopropyl]indole-6-carboxylic acid] |
| 65 °C | CCCCCCCCc1ccc(OCC(=O)Cn2ccc3ccccc32)cc1 |
| 208 °C | CCCCCCCCc1ccc(OCC(=O)Cn2cc(C(=O)OC)c3cc(C(=O)O)ccc32)cc1 |
| 157 °C (dec.) | CCCCCCCCc1ccc(OCC(=O)Cn2cccc2C(=O)O)cc1 [Example 5, 1-[3-(4-Octylphenoxy)-2-oxopropyl]pyrrol-2-carboxylic acid] |
| 193 °C | CCCCCCCCc1ccc(OCC(=O)Cn2cc(C=O)c3cc(C(=O)O)ccc32)cc1 |
| 96 °C | CCCCCCCCc1ccc(OCC(=O)Cn2ccc3cc(C#N)ccc32)cc1 [Example 15, 1-(3-(4-Octylphenoxy)-2-oxopropyl]indole-5-carbonitrile] |
| 197 °C | CCCCCCCCc1ccc(OCC(=O)Cn2cc(C(C)=O)c3cc(C(=O)O)ccc32)cc1 |
| 118 °C | CCCCCCCCc1ccc(OCC(=O)Cn2ccc3cc(C(=O)OC)ccc32)cc1 [Example 17, Methyl-1-(3-(4-octylphenoxy)-2-oxopropyl]indole-5-carboxylate] |
| 114 °C | CCCCCCCOc1ccc(OCC(=O)Cn2ccc3cc(C(N)=O)ccc32)cc1 [Example 26, 1-[3-(4-Heptyloxyphenoxy)-2-oxopropyl]indole-5-carbamide] |
| 173 °C | CCCCCCCCc1ccc(OCC(=O)Cn2c(C(=O)O)cc3ccccc32)cc1 [Example 7, 1-[3-(4-Octylphenoxy)-2-oxopropyl]indole-2-carboxylic acid] |
| 171 °C | CCCCCCCn1ccc2cc(OCC(=O)Cn3ccc4cc(C(N)=O)ccc43)ccc21 [Example 30, 1-[3-(1-Heptylindol-5-yloxy)-2-oxopropyl]indole-5-carbamide] |
| 146 to 147 °C | CCCCCCCCc1ccc(OCC(=O)Cn2cc(C(C)(C)C)c3cc(C(=O)O)ccc32)cc1 [Example 18, 3-tert-Butyl-1-[3-(4-octylphenoxy)-2-oxopropyl]indole-5-carboxylic acid] |

| SMILES | melting point |
| --- | --- |
| CCCCCCCCc1ccc(OCC(=O)Cn2cc(C(=O)O)c3ccccc32)cc1 [Example 8, 1-[3-(4-Octylphenoxy)-2-oxopropyl]indole-3-carboxylic acid] | 182 to 183 °C |

Molecular target: T1, cytosolic phospholipase A2 (Homo sapiens, UniProt P47712)
T1 construct: endogenous in cells; host or cells: intact human platelets (thrombocytes)
T1 sequence (P47712 1-749): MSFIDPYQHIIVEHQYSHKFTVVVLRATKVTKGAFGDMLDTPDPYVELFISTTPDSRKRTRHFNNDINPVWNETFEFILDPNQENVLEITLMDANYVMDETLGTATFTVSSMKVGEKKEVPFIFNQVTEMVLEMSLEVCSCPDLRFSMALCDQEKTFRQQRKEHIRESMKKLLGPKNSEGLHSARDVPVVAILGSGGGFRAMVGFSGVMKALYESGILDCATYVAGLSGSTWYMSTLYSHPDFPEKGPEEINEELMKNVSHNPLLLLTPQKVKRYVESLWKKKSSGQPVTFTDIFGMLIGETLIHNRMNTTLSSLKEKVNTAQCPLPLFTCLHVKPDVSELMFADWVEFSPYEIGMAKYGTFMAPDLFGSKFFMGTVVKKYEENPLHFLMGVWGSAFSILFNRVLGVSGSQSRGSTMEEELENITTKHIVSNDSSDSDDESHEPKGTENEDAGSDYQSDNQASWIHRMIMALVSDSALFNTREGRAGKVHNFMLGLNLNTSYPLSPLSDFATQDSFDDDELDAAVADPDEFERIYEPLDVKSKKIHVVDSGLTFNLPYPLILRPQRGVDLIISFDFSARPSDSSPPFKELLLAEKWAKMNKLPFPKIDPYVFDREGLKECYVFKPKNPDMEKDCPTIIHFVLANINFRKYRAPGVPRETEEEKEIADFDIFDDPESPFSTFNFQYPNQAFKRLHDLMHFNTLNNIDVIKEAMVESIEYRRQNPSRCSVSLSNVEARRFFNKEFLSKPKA
Assay: Inhibition of cytosolic phospholipase A2 in intact human platelets stimulated with calcium ionophor A23187 (arachidonic acid release, HPLC)
Format: cell-based
Conditions: concentration of 10 μM, calcium ionophor A23187 stimulation, one collective range for the six compounds, read-out: inhibited the activity of cytosolic phospholipase A2
Text: The effectiveness of the compounds according to the invention can be determined by the inhibition of cytosolic phospholipase A2. To this end, cytosolic phospholipase A2 is stimulated in intact human thrombocytes with calcium ionophor A23187 so as to trigger the release of arachidonic acid from the membrane phospholipids. In order to prevent the metabolization of the enzyme product arachidonic acid via the cyclooxygenase route and the 12-lipoxygenase route, the dual cyclooxygenase/12-lipoxygenase-inhibitor 5,8,11,14-eicosatetraynoic acid is added. Following purification by means of solid phase extraction, the released arachidonic acid is determined by reversed phase-HPLC using U.V. detection. The inhibition of the enzyme by a test substance follows from the ratio of the arachidonic acid amounts formed in the presence or absence of the test substance. More detailed information on the test system is made in Example 10.
The effectiveness of the compounds according to the invention can be determined by the inhibition of cytosolic phospholipase A2. The test method used was described earlier (Lehr M. et al., Arch. Pharm. Pharm. Med. Chem. 2000, 333, 312-314). Here, the arachidonic acid formed by cytosolic phospholipase A2 in intact human platelets following stimulation using calcium ionophor A23187 is detected in the presence and absence of test substances.

| inhibition at 10 µM | SMILES |
| --- | --- |
| 40 to 95% | CCCCCCCCc1ccc(OCC(=O)Cn2ccc3cc(C(=O)O)ccc32)cc1 [Example 9, 1-[3-(4-Octylphenoxy)-2-oxopropyl]indole-5-carboxylic acid] |
| 40 to 95% | CCCCCCCCc1ccc(OCC(=O)Cn2ccc(C(=O)O)c2)cc1 [Example 6, 1-[3-(4-Octylphenoxy)-2-oxopropyl]pyrrole-3-carboxylic acid] |
| 40 to 95% | CCCCCCCCc1ccc(OCC(=O)Cn2cccc2C(=O)O)cc1 [Example 5, 1-[3-(4-Octylphenoxy)-2-oxopropyl]pyrrol-2-carboxylic acid] |
| 40 to 95% | CCCCCCCCc1ccc(OCC(=O)Cn2c(C(=O)O)cc3ccccc32)cc1 [Example 7, 1-[3-(4-Octylphenoxy)-2-oxopropyl]indole-2-carboxylic acid] |
| 40 to 95% | CCCCCCCCc1ccc(OCC(=O)Cn2cccn2)cc1 [Example 2, 1-(4-Octylphenoxy)-3-(pyrazol-1-yl)propan-2-one] |

| SMILES | inhibition at 10 µM |
| --- | --- |
| CCCCCCCCc1ccc(OCC(=O)Cn2cc(C(=O)O)c3ccccc32)cc1 [Example 8, 1-[3-(4-Octylphenoxy)-2-oxopropyl]indole-3-carboxylic acid] | 40 to 95% |
